Assay results: US20260355191A1, “PAN-RAS INHIBITOR COMPOUND” (ADLAI NORTYE BIOPHARMA CO., LTD., priority 2024, published 2026)

Key:
HepG2 = experiment: In vitro cell proliferation inhibition assay (CellTiter-Glo), HepG2; format: cell-based; details: HepG2, NRAS (p.Q61L), 72 h; read-out: IC50, antiproliferative activity
Procedure: (§1) Due to the diversity of RAS mutations, and in order to evaluate the activity of the compounds in different RAS mutant cell lines, we selected cell lines with KRAS^G12D, KRAS^G12V, KRAS^G12c, NRAS^q61L, KRAS^G13D, KRAS^G12R, and KRAS^WT mutations (see the table below for in vitro activity evaluation and screening of the compounds.
(§2) According to the doubling time of different cell lines, different numbers of cells (1000-5000 cells/well) were seeded into 96-well plates containing 180 μL of the corresponding culture medium, and incubated overnight in a cell incubator at 37 °C with 5% C02. On the following day, the test compounds were pre-diluted in the culture medium in a 3-fold serial dilution series, with the highest concentration being […], resulting in 10 concentration gradients in total. Subsequently, 20 μL of culture medium containing the compounds at different concentrations was added to the cells in the 96-well plates, ensuring a final compound concentration of up to 10 μM, with 10 concentrations in 3-fold dilution. After co-incubation of the cells with the compounds for 72 h, the 96-well plates were removed from the incubator and equilibrated at room temperature for 30 min. Then, 25 μL of CellTiter-Glo® Reagent was added to each well and mixed thoroughly, followed by incubation at room temperature for 10 min. Subsequently, 100 μL of the samples was transferred to white 96-well plates (OptiPlate™-96, PerkinElmer), and […] signal values were read using a multifunctional microplate reader (SpectraMax i3x, Molecular Devices). The signal values were then normalized, and curve fitting was performed using a four-parameter logistic regression equation to calculate the half maximal inhibitory concentration (IC50) of the compounds against the cell lines.

H358 = experiment: In vitro cell proliferation inhibition assay (CellTiter-Glo), H358; format: cell-based; details: H358, KRAS (p.G12C), 72 h; read-out: IC50, antiproliferative activity
Procedure: as §1, §2

HCT116 = experiment: In vitro cell proliferation inhibition assay (CellTiter-Glo), HCT116; format: cell-based; details: HCT116, KRAS (p.G13D), 72 h; read-out: IC50, antiproliferative activity
Procedure: as §1, §2

MV411 = experiment: In vitro cell proliferation inhibition assay (CellTiter-Glo), MV411; format: cell-based; details: MV411, KRAS wild type, 72 h; read-out: IC50, antiproliferative activity
Procedure: as §2

PSN1 = experiment: In vitro cell proliferation inhibition assay (CellTiter-Glo), PSN1; format: cell-based; details: PSN1, KRAS (p.G12R), 72 h; read-out: IC50, antiproliferative activity
Procedure: as §1, §2

AsPC-1 = experiment: In vitro cell proliferation inhibition assay (CellTiter-Glo), AsPC-1; format: cell-based; details: AsPC-1, KRAS (p.G12D), 72 h; read-out: IC50, antiproliferative activity
Procedure: as §1, §2

SW480 = experiment: In vitro cell proliferation inhibition assay (CellTiter-Glo), SW480; format: cell-based; details: SW480, KRAS (p.G12V), 72 h; read-out: IC50, antiproliferative activity
Procedure: as §1, §2

[1] = Pharmacokinetic study in mice; format: in vivo; details: mouse, male CD-1 mice; for bioavailability: blood; for bioavailability / AUC / Cmax: po, p.o. 2 mpk; for bioavailability / Vd / clearance: i.v. 1 mpk; for Vd / clearance: iv, 1 mg/kg; for Vd / clearance / AUC / Cmax: whole blood; for AUC / Cmax: 2 mg/kg
Procedure: To evaluate the pharmacokinetic behavior of the compounds of the disclosure in male CD-1 mice, the test compounds were dissolved in a solvent (5% DMSO/10% solutol/85% water). Twelve male CD-1 mice were divided into two groups, with six animals in each group. Group 1 received a single intravenous bolus (i.v.) administration of the compound, and Group 2 received a single oral (p.o.) administration of the compound. Whole blood samples were collected at 0.083 h (intravenous group only), 0.25, 0.5, 1, 2, 4, 8, and 24 hours after dosing. The concentration of the test compound in whole blood samples was determined using the LC-MS/MS method.

Compound	IC50 (HepG2) [nM]	IC50 (H358) [nM]	IC50 (HCT116) [nM]	IC50 (MV411) [nM]	IC50 (AsPC-1) [nM]	IC50 (SW480) [nM]	bioavailability [1] [%]	Vd [1] [L/kg]	clearance [1] [mL/min/kg]	AUC [1] [ng·h/mL]	Cmax [1] [ng/mL]	IC50 (PSN1) [nM]
CCn1c(-c2cc(-c3nnc(C4CCN(C5COC5)CC4)o3)cnc2[C@H](C)OC)c2c3cc(ccc31)-c1csc(n1)C[C@H](NC(=O)[C@H]1C[C@@H]1C)C(=O)N1CCC[C@H](N1)C(=O)OCC(C)(C)C2 (atropisomer, axis not shown) [Compound 1, (1S,2S)—N-((6^3S,4S,Z)-1^1-ethyl-1^2-(2-((S)-1-methoxyethyl)-5-(5-(1-(oxetan-3-yl)piperidin-4-yl)-1,3,4-oxadiazol-2-yl)pyridin-3-yl)-10,10-dimethyl-5,7-dioxo-6^1,6^2,6^3,6^4,6^5,6^6-hexahydro-1^1H-8-oxa-2(4,2)-thiazola-1(5,3)-indola-6(1,3)-pyridazinacycloundecaphane-4-yl)-2-methylcyclopropane-1-carboxamide]	5	0.06	~10	1.7	0.05	0.07	–	–	–	–	–	5.1
CCn1c(-c2cc(-c3nnc([C@H]4CCCN(C5COC5)C4)o3)cnc2[C@H](C)OC)c2c3cc(ccc31)-c1csc(n1)C[C@H](NC(=O)[C@H]1C[C@@H]1C)C(=O)N1CCC[C@H](N1)C(=O)OCC(C)(C)C2 (atropisomer, axis not shown) [Compound 18, (1S,2S)—N-((6^3S,4S,Z)-1^1-ethyl-1^2-(2-((S)-1-methoxyethyl)-5-(5-((S)-1-(oxetan-3-yl)piperidin-3-yl)-1,3,4-oxadiazol-2-yl)pyridin-3-yl)-10,10-dimethyl-5,7-dioxo-6^1,6^2,6^3,6^4,6^5,6^6-hexahydro-1^1H-8-oxa-2(4,2)-thiazola-1(5,3)-indola-6(1,3)-pyridazinacycloundecaphane-4-yl)-2-methylcyclopropane-1-carboxamide]	1.6	0.39	23	13	0.03	0.13	–	–	–	–	–	5.3
CCn1c(-c2cc(-c3nc(C4CCN(C5COC5)CC4)n(C4COC4)n3)cnc2[C@H](C)OC)c2c3cc(ccc31)-c1csc(n1)C[C@H](NC(=O)[C@H]1C[C@@H]1C)C(=O)N1CCC[C@H](N1)C(=O)OCC(C)(C)C2 (atropisomer, axis not shown) [Compound 26, (1S,2S)—N-((6^3S,4S,Z)-1^1-ethyl-1^2-(2-((S)-1-methoxyethyl)-5-(1-(oxetan-3-yl)-5-(1-(oxetan-3-yl)piperidin-4-yl)-1H-1,2,4-triazol-3-yl)pyridin-3-yl)-10,10-dimethyl-5,7-dioxo-6^1,6^2,6^3,6^4,6^5,6^6-hexahydro-1^1H-8-oxa-2(4,2)-thiazola-1(5,3)-indola-6(1,3)-pyridazinacycloundecaphane-4-yl)-2-methylcyclopropane-1-carboxamide]	0.25	0.01	3.2	0.64	0.25	0.54	–	–	–	–	–	0.08
CCn1c(-c2cc(-c3nc(C4CCN(C5COC5)CC4)n(CCN(C)C)n3)cnc2[C@H](C)OC)c2c3cc(ccc31)-c1csc(n1)C[C@H](NC(=O)[C@H]1C[C@@H]1C)C(=O)N1CCC[C@H](N1)C(=O)OCC(C)(C)C2 (atropisomer, axis not shown) [Compound 27, (1S,2S)—N-((6^3S,4S,Z)-1^2-(5-(1-(2-(dimethylamino)ethyl)-5-(1-(oxetan-3-yl)piperidin-4-yl)-1H-1,2,4-triazol-3-yl)-2-((S)-1-methoxyethyl)pyridin-3-yl)-1^1-ethyl-10,10-dimethyl-5,7-dioxo-6^1,6^2,6^3,6^4,6^5,6^6-hexahydro-1^1H-8-oxa-2(4,2)-thiazola-1(5,3)-indola-6(1,3)-pyridazinacycloundecaphane-4-yl)-2-methylcyclopropane-1-carboxamide]	0.05	0.17	11	1.1	0.37	0.87	–	–	–	–	–	0.16
CCn1c(-c2cc(N3CCN(C)CC3)cnc2[C@H](C)OC)c2c3cc(ccc31)-c1csc(n1)C[C@H](NC(=O)[C@H]1C[C@@H]1C)C(=O)N1CCC[C@H](N1)C(=O)OCC(C)(C)C2 [RMC-6236]	2.8	0.08	2.6	4.2	1.2	1.5	–	–	–	–	–	2

Continued, in another order:

IC50 (HepG2) [nM]	IC50 (H358) [nM]	IC50 (HCT116) [nM]	IC50 (MV411) [nM]	IC50 (AsPC-1) [nM]	IC50 (SW480) [nM]	bioavailability [1] [%]	Vd [1] [L/kg]	clearance [1] [mL/min/kg]	AUC [1] [ng·h/mL]	Cmax [1] [ng/mL]	Compound	IC50 (PSN1) [nM]
0.01	0.002	0.07	0.16	0.06	0.09	24.5	1.95	4.6	1790	167	CCn1c(-c2cc(-c3nnc(C4CCN(C5COC5)CC4)o3)cnc2[C@H](C)OC)c2c3cc(ccc31)-c1csc(n1)C[C@H](NC(=O)[C@H]1[C@H](C)[C@@H]1C)C(=O)N1CCC[C@H](N1)C(=O)OCC(C)(C)C2 (atropisomer, axis not shown) [Compound 2, (1r,2R,3S)—N-((6^3S,4S,Z)-1^1-ethyl-1^2-(2-((S)-1-methoxyethyl)-5-(5-(1-(oxetan-3-yl)piperidin-4-yl)-1,3,4-oxadiazol-2-yl)pyridin-3-yl)-10,10-dimethyl-5,7-dioxo-6^1,6^2,6^3,6^4,6^5,6^6-hexahydro-1^1H-8-oxa-2(4,2)-thiazola-1(5,3)-indola-6(1,3)-pyridazinacycloundecaphane-4-yl)-2,3-dimethylcyclopropane-1-carboxamide]	0.01
0.16	0.041	0.23	0.76	0.09	0.06	63.3	2.87	3.7	5740	248	CO[C@@H](C)c1ncc(-c2nnc(C3CCN(C4COC4)CC3)o2)cc1-c1c2c3cc(ccc3n1CC(F)(F)F)-c1csc(n1)C[C@H](NC(=O)C1C[C@@H]1C)C(=O)N1N[C@H](C(=O)OCC(C)(C)C2)C2CC1C2 (stereo partly drawn) [Compound 9]	0.01
0.11	0.04	0.02	0.45	0.01	0.04	–	–	–	–	–	CO[C@@H](C)c1ncc(-c2nnc(C3CCN(C4COC4)C[C@@H]3C)o2)cc1-c1c2c3cc(ccc3n1CC(F)(F)F)-c1csc(n1)C[C@H](NC(=O)[C@H]1[C@H](C)[C@@H]1C)C(=O)N1N[C@H](C(=O)OCC(C)(C)C2)C2CC1C2 (stereo partly drawn) [Compound 38]	0.01
0.01	0.03	0.03	0.56	0.01	0.02	–	–	–	–	–	CO[C@@H](C)c1ncc(-c2noc(C3CCN(C4COC4)CC3)n2)cc1-c1c2c3cc(ccc3n1CC(F)(F)F)-c1csc(n1)C[C@H](NC(=O)[C@H]1[C@H](C)[C@@H]1C)C(=O)N1N[C@H](C(=O)OCC(C)(C)C2)C2CC1C2 [Example 42]	0.01
0.022	0.01	1.1	0.42	0.06	0.37	–	–	–	–	–	CO[C@@H](C)c1ncc(-c2nnc(C3CCN(C4CCN(C)CC4)CC3)o2)cc1-c1c2c3cc(ccc3n1CC(F)(F)F)-c1csc(n1)C[C@H](NC(=O)[C@H]1[C@@H]3COC[C@@H]31)C(=O)N1N[C@H](C(=O)OCC(C)(C)C2)C2CC1C2 [Example 45]	0.04
0.05	0.01	0.58	1	0.05	0.06	–	–	–	–	–	CO[C@@H](C)c1ncc(-c2nnc(C3CCN(C4COC4)C3)o2)cc1-c1c2c3cc(ccc3n1CC(F)(F)F)-c1csc(n1)C[C@H](NC(=O)[C@H]1[C@H](C)[C@@H]1C)C(=O)N1N[C@H](C(=O)OCC(C)(C)C2)C2CC1C2 (stereo partly drawn) [Example 46]	0.09
